The record followed here is patent US20070004758A1, “COMPOSITIONS AND TREATMENTS FOR INHIBITING KINASE AND/OR HMG-COA REDUCTASE” (priority 2004, published 2007).

Experiment [1] relates to oxazolone-induced mouse ear swelling. Briefly: Model for inhibition of topical inflammation (oxazolone-induced mouse ear swelling). In kind it is in vivo, BALB/c male mice. To be noted: topical to right ear, ear thickness 24 hours after challenge. On the procedure:
Left ears were untreated. The thickness of both ears of each animal was measured with a Dyer model micrometer gauge 24 hours after oxazolone challenge, and the net increase in thickness of right ears versus left ears was calculated for each animal. Percent inhibition was calculated according to the formula: [(Iv−It)/Iv]×100, where Iv and It respectively refer to the average net increase in right ear thickness (mm) for vehicle and candidate compound treated mice.

In experiment [2] the test system is LPS-induced TNF-α release from human peripheral blood mononuclear cells. Briefly: Whole cell LPS-stimulated TNF-α release assay. In kind it is cell-based. To be noted: Table III; inhibition of LPS-induced TNF-α release from human PBMC by 50%. How it is done:
The procedure as described in Welker et al., Int. Arch. Allergy and Immunol. 109:110-115 (1996) can be followed. Briefly, a candidate compound and/or vehicle can be preincubated with human peripheral blood mononuclear leukocytes (PBML, 5×10^5/ml) cells in AIM-V medium pH 7.4 for 2 hours. Lipopolysaccharide (LPS, 25 ng/ml) can be added to stimulate the cells, which can be incubated overnight at 37° C. TNF-α cytokine levels in the conditioned medium can then be quantitated using a sandwich ELISA kit.

Where a name gives a salt, the structure may show the parent alone.

Consider `CC(C)c1c(C(=O)Nc2ccccc2)c(-c2ccccc2)c(-c2ccc(F)cc2)n1CC[C@@H](O)C[C@@H](O)CC(=O)O` [Atorvastatin sodium], for which the “% Inh. of oxazolone-induced mouse ear swelling” value in experiment [1] (dose 2 × 0.3 mg) amounted to 9%; in experiment [1] (dose 2 × 1 mg) it was 31%; in experiment [1] (dose 2 × 2 mg), 63%.

As a reminder, the IC50 is the point on the concentration scale where inhibition reaches its midpoint. The compound `O=C(O)C[C@H](O)C[C@H](O)/C=C/c1c(-c2ccccc2)nn(-c2ccnc(Nc3ccccc3)n2)c1-c1ccccc1` [Example 11a, (3R,5S,E)-7-(3,5-diphenyl-1-(2-(phenylamino)pyrimidin-4-yl)-1H-pyrazol-4-yl)-3,5-dihydroxyhept-6-enoic Acid Calcium Salt] yielded a half-maximal inhibitory concentration (IC50) in experiment [2] of 31 µM.

For the compound `O=C(O)C[C@H](O)C[C@H](O)/C=C/c1cnn(-c2ccnc(Nc3ccccc3)n2)c1-c1cccc(C(F)(F)F)c1` [Example 11g, (3R,5S,E)-3,5-dihydroxy-7-(1-(2-(phenylamino)pyrimidin-4-yl)-5-(3-(trifluoromethyl)phenyl)-1H-pyrazol-4-yl)hept-6-enoic acid calcium salt], in experiment [2], the IC50 amounted to 52 µM.

On to `CC(C)n1c(/C=C/C(O)CC(O)CC(=O)O)c(-c2ccc(F)cc2)c2ccccc21` (stereo not drawn) [Fluvastatin sodium], for which the “% Inh. of oxazolone-induced mouse ear swelling” value in experiment [1] (dose 2 × 0.3 mg) is 28%.

In the case of `O=C([O-])C[C@H](O)C[C@H](O)/C=C/c1c(C2CC2)nc2ccccc2c1-c1ccc(F)cc1.O=C([O-])C[C@H](O)C[C@H](O)/C=C/c1c(C2CC2)nc2ccccc2c1-c1ccc(F)cc1.[Ca+2]` [Pitavastatin calcium], the “% Inh. of oxazolone-induced mouse ear swelling” value in experiment [1] (dose 2 × 0.3 mg) was 9%; in experiment [1] (dose 2 × 2 mg), 60%.

Take `CC(C)c1nc(N(C)S(C)(=O)=O)nc(-c2ccc(F)cc2)c1/C=C/[C@@H](O)C[C@@H](O)CC(=O)O` [Rosuvastatin sodium]: in experiment [1] (dose 2 × 0.3 mg), the “% Inh. of oxazolone-induced mouse ear swelling” value is on record as 20%.
